Values of other authors in PMC11062894, “Protein-based bandpass filters for controlling cellular signaling with chemical inputs” (Nature Chemical Biology, 2023).

Target: BclXL
Conditions: cited from earlier work

For `CN(C)CC#Cc1ccc(OCCCc2sc(N3CCc4cccc(C(=O)Nc5nc6ccccc6s5)c4C3)nc2C(=O)O)c(F)c1` [A-1155463], the Kd is listed as less than 0.01 nM.
